Results from patent US8722849B2, “Polypeptides” (Novo Nordisk A/S, priority 2011, dated 2014).
Values after ≈ are worked out from the molar mass of the structure shown. Like-named read-outs stand apart in the source and are kept apart here. Starred links: 1 amine or outer side, 2 acyl side, 3 side chain; linkers in the order of their positions; H or OH if unused. Positions of bridges follow the written chain, without caps; N, C: chain ends. Residues, ends and D or L forms follow the SMILES beside them. *: point of attachment. C20 diacid = O=C(O)CCCCCCCCCCCCCCCCCCC(=O)*; γGlu = O=C(O)[C@H](CCC(=O)[*:2])N[*:1]

Assays:
[1] = target: T1, human amylin receptor (amylin 3(a) receptor: human calcitonin receptor + RAMP-3) (Homo sapiens, UniProt O60896+P30988); assay: Assay (II)a functional CRE-luciferase assay, human amylin receptor; format: cell-based
T1 construct: expressed in transfected cells; host or cells: BHK570
T1 sequence (P30988 25-474): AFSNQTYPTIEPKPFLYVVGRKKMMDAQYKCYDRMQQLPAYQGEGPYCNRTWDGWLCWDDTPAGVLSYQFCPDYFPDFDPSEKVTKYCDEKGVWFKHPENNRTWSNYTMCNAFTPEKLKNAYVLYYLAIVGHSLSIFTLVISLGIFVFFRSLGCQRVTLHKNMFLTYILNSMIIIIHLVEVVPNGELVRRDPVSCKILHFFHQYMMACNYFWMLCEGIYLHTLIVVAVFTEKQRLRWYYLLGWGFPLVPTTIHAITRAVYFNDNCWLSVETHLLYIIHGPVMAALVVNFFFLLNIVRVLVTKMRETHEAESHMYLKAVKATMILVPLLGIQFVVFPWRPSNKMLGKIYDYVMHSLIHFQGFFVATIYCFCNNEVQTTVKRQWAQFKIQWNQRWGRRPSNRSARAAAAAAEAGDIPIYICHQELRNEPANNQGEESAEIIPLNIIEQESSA
T1 sequence (O60896 24-148 partner): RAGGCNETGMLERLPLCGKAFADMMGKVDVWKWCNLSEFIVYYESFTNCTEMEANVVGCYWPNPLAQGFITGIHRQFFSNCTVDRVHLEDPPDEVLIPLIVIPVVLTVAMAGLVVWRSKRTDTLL
Text: (§1) 1. Luciferase Assay Outline
(§2) Activation of calcitonin and amylin (coexpression of calcitonin receptor and receptor activity modifying proteins (RAMP)) receptors lead to increased intracellular concentrations of cAMP. Consequently, transcription is activated by promoters containing multiple copies of the cAMP response element (CRE). It is thus possible to measure amylin activity by the use of a CRE luciferase reporter gene introduced into BHK cells also expressing calcitonin or amylin receptors.
(§3) A BHK570 cell line was stably transfected with the human calcitonin receptor and a CRE-responsive luciferase reporter gene. The cell line was further transfected with RAMP-3, using standard methods. This turns the calcitonin receptor into an amylin 3(a) receptor. Methotrexate, Neomycin, and Hygromycin are selection markers for luciferase, the calcitonin receptor, and RAMP-3, respectively.
(§4) To perform activity assays, BHK calcitonin (a) receptor- or amylin 3(a)-receptor/CRE-luc cells were seeded in white 96 well culture plates at a density of about 20.000 cells/well. […] Further, 50 μl/well of standard or sample in assay buffer were added. After 3 hours incubation at 37° C. and 5% CO2, the assay medium with standard or sample were removed and replaced by 100 μl/well PBS. Further, 100 μl/well LucLite™ was added. The plates were sealed and incubated at room temperature for 30 minutes. Finally, luminescence was measured on a TopCounter (Packard) in SPC (single photon counting) mode.

[2] = target: T2, human calcitonin receptor (Homo sapiens, UniProt P30988); assay: Assay (II)a functional CRE-luciferase assay, human calcitonin receptor; format: cell-based
T2 construct: expressed in transfected cells; host or cells: BHK570
T2 sequence (P30988 25-474): T1 sequence (P30988 25-474)
Text: as §1, §2, §3, §4

[3] = Assay (IV) determination of solubility; format: physicochemical
Method in brief: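 Polypeptide in water (~500 nmol/ml stock) was mixed 1:1 with 100 mM buffers from pH 3.0 to 8.0 (glycylglycine pH 3.0–5.0; bistrispropane pH 6.0–8.0). After 18 hours at room temperature, samples were centrifuged and the polypeptide remaining in solution was quantified by HPLC.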

[4] = Table 7, human calcitonin (CTa) receptor
[5] = bistrispropane buffer, pH 6, pH 6.0, read-out: Solubility pH 6.0
[6] = bistrispropane buffer, pH 6.5, pH 6.5, read-out: Solubility pH 6.5
[7] = bistrispropane buffer, pH 7, pH 7.0, 18 hours at room temperature, Table 3, read-out: Solubility pH 7.0
[8] = bistrispropane buffer, pH 7, pH 7.0, read-out: Solubility pH 7.0
[9] = bistrispropane buffer, pH 7.5, pH 7.5, read-out: Solubility pH 7.5
[10] = bistrispropane buffer, pH 8, pH 8.0, read-out: Solubility pH 8.0
[11] = glycylglycine buffer, pH 3, pH 3.0, read-out: Solubility pH 3.0
[12] = glycylglycine buffer, pH 4, pH 4.0, read-out: Solubility pH 4.0
[13] = glycylglycine buffer, pH 5, pH 5.0, read-out: Solubility pH 5.0

| SMILES | EC50 ([1]; Table 3, BHK amylin 3(a)-receptor/CRE-luc cells) | EC50 [2, 4] | solubility at 18 h [3, 5] | solubility at 18 h [3, 6] | solubility at 18 h [3, 7] | solubility at 18 h [3, 8] | solubility at 18 h [3, 9] | solubility at 18 h [3, 10] | solubility at 18 h [3, 11] | solubility at 18 h [3, 12] | solubility at 18 h [3, 13] | EC50 ([1]; Table 2, BHK amylin 3(a)-receptor/CRE-luc cells) | solubility at 18 h ([3]; glycylglycine buffer, pH 4, pH 4.0, 18 hours at room temperature, Table 2, read-out: Solubility pH 4.0) | EC50 ([1]; Table 6, human amylin receptor) | EC50 ([2]; Table 11, read-out: CTa receptor human EC50) |
| --- | --- | --- | --- | --- | --- | --- | --- | --- | --- | --- | --- | --- | --- | --- | --- |
| CC[C@H](C)[C@H](NC(=O)[C@@H]1CCCN1C(=O)CNC(=O)[C@H](Cc1ccccc1)NC(=O)[C@H](CO)NC(=O)[C@H](CO)NC(=O)[C@H](CO)NC(=O)[C@H](CO)NC(=O)[C@H](CCCNC(=N)N)NC(=O)[C@H](Cc1c[nH]cn1)NC(=O)[C@H](CC(C)C)NC(=O)[C@H](Cc1ccccc1)NC(=O)[C@H](CCC(=O)O)NC(=O)[C@H](C)NC(=O)[C@H](CC(C)C)NC(=O)[C@H](CCCNC(=N)N)NC(=O)[C@H](CCC(N)=O)NC(=O)[C@@H](NC(=O)[C@H](C)NC(=O)[C@@H]1CSSC[C@H](NC(=O)[C@H](Cc2c[nH]cn2)NC(=O)CC[C@H](NC(=O)CCCCCCCCCCCCCCCCCCC(=O)O)C(=O)O)C(=O)NCC(=O)N[C@@H]([C@@H](C)O)C(=O)N[C@@H](C)C(=O)N[C@@H]([C@@H](C)O)C(=O)N1)[C@@H](C)O)C(=O)N[C@@H](CC(C)C)C(=O)N1CCC[C@H]1C(=O)N1CCC[C@H]1C(=O)N[C@H](C(=O)N[C@@H](CCC(=O)O)C(=O)N[C@H](C(=O)NCC(=O)N[C@@H](CO)C(=O)N[C@@H](CCC(=O)O)C(=O)N[C@H](C(=O)N[C@@H](Cc1ccc(O)cc1)C(N)=O)[C@@H](C)O)C(C)C)[C@@H](C)O [Example 16, N-alpha-[(S)-4-Carboxy-4-(19-carboxynonadecanoylamino)butyryl]-[His1,Gly3,Glu14,His17,Arg18,Ser21,Ser22,Glu31,Glu35]-pramlintide] ({C20 diacid-γGlu}-HCGTATCATQRLAEFLHRSSSSFGPILPPTEVGSETY-NH2; disulfide 2-7 (inferred)) | 0.313 nM | 0.198 nM | 34 µM (≈ 150 µg/mL) | 12 µM (≈ 52.8 µg/mL) | 104 µM (≈ 458 µg/mL) | 104 µM (≈ 458 µg/mL) | 122 µM (≈ 537 µg/mL) | 129 µM (≈ 568 µg/mL) | 179 µM (≈ 788 µg/mL) | 80 µM (≈ 352 µg/mL) | 1 µM (≈ 4.4 µg/mL) |  |  |  |  |
| CC[C@H](C)[C@H](NC(=O)[C@@H]1CCCN1C(=O)CNC(=O)[C@H](Cc1ccccc1)NC(=O)[C@H](CC(N)=O)NC(=O)[C@H](CCC(N)=O)NC(=O)[C@H](CO)NC(=O)[C@H](CO)NC(=O)[C@H](Cc1c[nH]cn1)NC(=O)[C@H](CCCNC(=N)N)NC(=O)[C@H](CC(C)C)NC(=O)[C@H](Cc1ccccc1)NC(=O)[C@H](CCC(=O)O)NC(=O)[C@H](C)NC(=O)[C@H](CC(C)C)NC(=O)[C@H](CCCNC(=N)N)NC(=O)[C@H](CCC(N)=O)NC(=O)[C@@H](NC(=O)[C@H](C)NC(=O)[C@@H]1CSSC[C@H](NC(=O)[C@H](CCCNC(=N)N)NC(=O)[C@H](CCC(=O)O)NC(=O)[C@H](CCC(=O)O)NC(=O)CC[C@H](NC(=O)CCCCCCCCCCCCCCCCCCC(=O)O)C(=O)O)C(=O)N[C@@H](CC(N)=O)C(=O)N[C@@H]([C@@H](C)O)C(=O)N[C@@H](C)C(=O)N[C@@H]([C@@H](C)O)C(=O)N1)[C@@H](C)O)C(=O)N[C@@H](CC(C)C)C(=O)N1CCC[C@H]1C(=O)N1CCC[C@H]1C(=O)N[C@H](C(=O)N[C@@H](CC(N)=O)C(=O)N[C@H](C(=O)NCC(=O)N[C@@H](CO)C(=O)N[C@@H](CC(N)=O)C(=O)N[C@H](C(=O)N1CCC[C@H]1C(N)=O)[C@@H](C)O)C(C)C)[C@@H](C)O [Example 157, N-alpha-[(S)-4-Carboxy-4-(19-carboxynonadecanoylamino)butyryl]-Glu-Glu-[Arg1,Glu14,Arg17,Gln21,Pro37]-pramlintide] ({C20 diacid-γGlu}-EERCNTATCATQRLAEFLRHSSQNFGPILPPTNVGSNTP-NH2; disulfide 4-9 (inferred); C-terminus assumed) |  | 0.547 nM | > 200 µM | > 200 µM | > 200 µM | > 200 µM | > 200 µM | > 200 µM | > 200 µM | > 200 µM | > 200 µM | 0.465 nM | > 200 µM |  |  |
| CC[C@H](C)[C@H](NC(=O)[C@@H]1CCCN1C(=O)CNC(=O)[C@H](Cc1ccccc1)NC(=O)[C@H](CC(N)=O)NC(=O)[C@H](CC(N)=O)NC(=O)[C@H](CO)NC(=O)[C@H](CO)NC(=O)[C@H](Cc1c[nH]cn1)NC(=O)[C@H](CCCNC(=N)N)NC(=O)[C@H](CC(C)C)NC(=O)[C@H](Cc1ccccc1)NC(=O)[C@H](CCC(=O)O)NC(=O)[C@H](C)NC(=O)[C@H](CC(C)C)NC(=O)[C@H](CCCNC(=N)N)NC(=O)[C@H](CCC(N)=O)NC(=O)[C@@H](NC(=O)[C@H](C)NC(=O)[C@@H]1CSSC[C@H](NC(=O)[C@H](CCCNC(=N)N)NC(=O)CNC(=O)CC[C@H](NC(=O)CCCCCCCCCCCCCCCCCCC(=O)O)C(=O)O)C(=O)N[C@@H](CC(N)=O)C(=O)N[C@@H]([C@@H](C)O)C(=O)N[C@@H](C)C(=O)N[C@@H]([C@@H](C)O)C(=O)N1)[C@@H](C)O)C(=O)N[C@@H](CC(C)C)C(=O)N1CCC[C@H]1C(=O)N1CCC[C@H]1C(=O)N[C@H](C(=O)N[C@@H](CC(N)=O)C(=O)N[C@H](C(=O)NCC(=O)N[C@@H](CO)C(=O)N[C@@H](CC(N)=O)C(=O)N[C@H](C(=O)N1CCC[C@H]1C(N)=O)[C@@H](C)O)C(C)C)[C@@H](C)O [Example 153, N-alpha-[(S)-4-Carboxy-4-(19-carboxynonadecanoylamino)butyryl]-Gly-[Arg1,Glu14,Arg17,Pro37]-pramlintide] ({C20 diacid-γGlu}-GRCNTATCATQRLAEFLRHSSNNFGPILPPTNVGSNTP-NH2; disulfide 3-8 (inferred)) |  | 0.041 nM |  |  |  |  |  |  |  |  |  |  |  | 0.043 nM |  |
| CC[C@H](C)[C@H](NC(=O)[C@@H]1CCCN1C(=O)CNC(=O)[C@H](Cc1ccccc1)NC(=O)[C@H](CC(N)=O)NC(=O)[C@H](CC(N)=O)NC(=O)[C@H](CO)NC(=O)[C@H](CO)NC(=O)[C@H](CCCNC(=N)N)NC(=O)[C@H](Cc1c[nH]cn1)NC(=O)[C@H](CC(C)C)NC(=O)[C@H](Cc1ccccc1)NC(=O)[C@H](CCC(=O)O)NC(=O)[C@H](C)NC(=O)[C@H](CC(C)C)NC(=O)[C@H](CCCNC(=N)N)NC(=O)[C@H](CCC(N)=O)NC(=O)[C@@H](NC(=O)[C@H](CCC(=O)O)NC(=O)[C@@H]1CSSC[C@H](NC(=O)[C@H](Cc2c[nH]cn2)NC(=O)CC[C@H](NC(=O)CCCCCCCCCCCCCCCCCCC(=O)O)C(=O)O)C(=O)N[C@@H](CC(N)=O)C(=O)N[C@@H]([C@@H](C)O)C(=O)N[C@@H](C)C(=O)N[C@@H]([C@@H](C)O)C(=O)N1)[C@@H](C)O)C(=O)N[C@@H](CC(C)C)C(=O)N1CCC[C@H]1C(=O)N1CCC[C@H]1C(=O)N[C@H](C(=O)N[C@@H](CC(N)=O)C(=O)N[C@H](C(=O)NCC(=O)N[C@@H](CO)C(=O)N[C@@H](CC(N)=O)C(=O)N[C@H](C(=O)N[C@@H](Cc1ccc(O)cc1)C(N)=O)[C@@H](C)O)C(C)C)[C@@H](C)O [Example 2, N-alpha-[(S)-4-Carboxy-4-(19-carboxynonadecanoylamino)butyryl]-[His1,Glu8,Glu14,His17,Arg18]-pramlintide] ({C20 diacid-γGlu}-HCNTATCETQRLAEFLHRSSNNFGPILPPTNVGSNTY-NH2; disulfide 2-7 (inferred)) |  |  |  |  |  |  |  |  |  |  |  |  |  | 0.602 nM | 4.3 nM |
